Laboratory results: patent publication US7915295B2, “Non-nucleotide reverse transcriptase inhibitors” (priority 2004, dated 2011)

Assays:
[1] = molecular target: T1, HIV-1 reverse transcriptase L100I+K103N mutant (Human immunodeficiency virus type 1 group M subtype B, UniProt P03366, K702N/L699I); test: HIV-1 reverse transcriptase SPA (scintillation proximity) assay with mutant RT; format: biochemical; conditions: K103N double escape mutant
T1 construct: made in house; host or cells: E. coli BL21 (DE3)
Experimental: Convenient reverse transcriptase assays use reverse transcriptase bearing key drug escape mutations prepared broadly as described in Unge et al Eur. J. Biochem. 269, 1670-1677 (2002).
For example a K103N mutant is prepared using this methodology and the primers
The L100I/K103 N mutant is prepared by mutation of L100 in the K103N enzyme:
Mutations are done in the HIVRT DH10 clone cDNA cloned into the pET11d expression vector. The mutations are generated by amplification of the mutated DNA with the help of the enzyme Pfu. Cloning was then performed in E. coli TOP10 cells and expression of mutated enzyme was performed in E. coli BL21 (DE3) cells after induction with IPTG.
The HIV-1 reverse transcriptase assay utilized a SPA (scintillation proximity assay) system relying on fluomicrospheres coated with the receptor molecule streptavidine (Flashplates, PerkinElmer Life Science) which is capable of binding radiolabelled ligands in the reaction solution. In the assay, a biotinylated primer (5′-GTC ATA GCT GTT TCC TG-3′) is pre-annealed with a DNA heterogeneous template (synthesized by GENSE) giving a sequence of 5′-CG UCUGGCAUUGCGAGCGGAUAA CM UUU CAC ACA GGA MC AGC UAU GAC-3′ in an RNase free environment. HIV-1 reverse transcriptase (such as L100I+K103N) catalyzed RNA-dependent DNA activity was measured in the presence of 50 mM Tris-HCl pH=8.0, 80 mM KCl, 10 mM MgCl2, 10 mM Dithiothreitol, 5 mg/ml BSA and 0.05% Nonidet P40 where the incorporation of tritium-labeled dGTP (Amersham, 35 Ci/mmol) and 11 uM of dNTP (dATP, dCTP and dTTP) was monitored at room temperature. The dGTP concentration was used at a Km value of 0.25 uM, 10 nM of RNA template was used and mutant RT (such as L100I+K103N) was used at 180 ng/ml in 100 ul reaction volume for 120 min reaction.
Compounds of the invention were assayed for HIV activity against the problematic L100I, K103N mutant in an invitro assay as outlined below. For reference, the closest prior art compound, cis-1-(4,7-difluoro-1,1a,2,7b-tetrahydro-cyclopropa[c]chromen-1-yl)-3-(5-phenoxy-pyridin-2-yl)-urea, example 20 of WO 02/070516 as depicted above, was assayed in the same system.

wild type HIV (HIVIIIB) = conditions: read-out: ED50 (the source's name); cited from earlier work

| SMILES | IC50 [1] | EC50 (wild type HIV (HIVIIIB)) |
| --- | --- | --- |
| CS(=O)(=O)Nc1ccc(Oc2ccc(NC(=O)N[C@@H]3[C@@H]4COc5c(F)ccc(F)c5[C@@H]43)nc2)cc1 [Example 3, N-[(1S,1aR,7bR)-4,7-difluoro-1,1a,2,7b-tetrahydrocyclopropa[c]chromen-1-yl]-N′-[5-(4-(N-methylsulfonamido)phenoxy)-2-pyridinyl]urea] | 0.06 µM |  |
| O=C(Nc1ccc(Oc2ccc(C(=O)NC3CC3)cc2)cn1)N[C@@H]1[C@H]2COc3c(F)ccc(F)c3[C@H]21 [Example 12, 4-({6-[({[(1S,1aS,7bS)-4,7-difluoro-1,1a,2,7b-tetrahydrocyclopropa[c]chromen-1-yl]amino}carbonyl)amino]-3-pyridinyl}oxy)-N-cyclopropylbenzamide] | 0.027 µM |  |
| O=C(Nc1ccc(Oc2ccccc2)cn1)N[C@@H]1[C@@H]2COc3c(F)ccc(F)c3[C@@H]21 (relative stereo) [Prior art, cis-1-(4,7-difluoro-1,1a,2,7b-tetrahydro-cyclopropa[c]chromen-1-yl)-3-(5-phenoxy-pyridin-2-yl)-urea, reference compound] | 0.6 µM | 0.007 µM |
| NC(=O)c1ccc(Oc2ccc(NC(=O)N[C@@H]3[C@@H]4COc5c(F)ccc(F)c5[C@@H]43)nc2)cn1 [Example 10, 5-({6-[({[(1S,1aR,7bR)-4,7-difluoro-1,1a,2,7b-tetrahydrocyclopropa[c]chromen-1-yl]amino}carbonyl)amino]-3-pyridinyl}oxy)-2-pyridinecarboxamide] | 0.08 µM |  |
| CC(=O)Nc1ccc(Oc2ccc(NC(=O)N[C@@H]3[C@H]4COc5c(F)ccc(F)c5[C@H]43)nc2)cc1 [Example 13, N-[4-({6-[({[(1S,1aS,7bS)-4,7-difluoro-1,1a,2,7b-tetrahydrocyclopropa[c]chromen-1-yl]amino}carbonyl)amino]-3-pyridinyl}oxy)phenyl]acetamide] | 0.04 µM |  |
| NS(=O)(=O)c1ccc(Oc2ccc(NC(=O)N[C@@H]3[C@@H]4COc5c(F)ccc(F)c5[C@@H]43)nc2)cc1 [Example 1, N-[(1S,1aR,7bR)-4,7-difluoro-1,1a,2,7b-tetrahydrocyclopropa[c]chromen-1-yl]-N′-[5-(4-(sulfonamido)phenoxy)-2-pyridinyl]urea] | 0.029 µM |  |
| CS(=O)(=O)c1ccc(Oc2ccc(NC(=O)N[C@@H]3[C@@H]4COc5c(F)ccc(F)c5[C@@H]43)nc2)cc1 [Example 5, N-[(1S,1aR,7bR)-4,7-difluoro-1,1a,2,7b-tetrahydrocyclopropa[c]chromen-1-yl]-N′-[5-(4-(methylsulfon)phenoxy)-2-pyridinyl]urea] | 0.04 µM |  |
| CNC(=O)c1ccc(Oc2ccc(NC(=O)N[C@@H]3[C@@H]4COc5c(F)ccc(F)c5[C@@H]43)nc2)cn1 [Example 8, 5-({6-[({[(1S,1aR,7bR)-4,7-difluoro-1,1a,2,7b-tetrahydrocyclopropa[c]chromen-1-yl]amino}carbonyl)amino]-3-pyridinyl}oxy)-N-methyl-2-pyridinecarboxamide] | 0.07 µM |  |
| NNC(=O)c1ccc(Oc2ccc(NC(=O)N[C@@H]3[C@H]4COc5c(F)ccc(F)c5[C@H]43)nc2)cc1 [Example 11, N-[(1S,1aS,7bS)-4,7-difluoro-1,1a,2,7b-tetrahydrocyclopropa[c]chromen-1-yl]-N′-{5-[4-(hydrazinocarbonyl)phenoxy]-2-pyridinyl}urea] | 0.01 µM |  |
| CNC(=O)c1ccc(Oc2ccc(NC(=O)N[C@@H]3[C@@H]4COc5c(F)ccc(F)c5[C@@H]43)nc2)cc1 [Example 2, N-[(1S,1 aR,7bR)-4,7-difluoro-1,1a,2,7b-tetrahydrocyclopropa[c]chromen-1-yl]-N′-[5-(4-(N-methylcarboxyamido)phenoxy)-2-pyridinyl]urea] | 0.026 µM |  |
| Nc1ccc(Oc2ccc(NC(=O)N[C@@H]3[C@@H]4COc5c(F)ccc(F)c5[C@@H]43)nc2)cc1 [Example 4, N-[(1S,1aR,7bR)-4,7-difluoro-1,1a,2,7b-tetrahydrocyclopropa[c]chromen-1-yl]-N′-[5-(4-aminophenoxy)-2-pyridinyl]urea] | 0.07 µM |  |
| O=C(Nc1ccc(Oc2ccc(-n3cncn3)cc2)cn1)N[C@@H]1[C@@H]2COc3c(F)ccc(F)c3[C@@H]21 [Example 14, N-[(1S,1aR,7bR)-4,7-difluoro-1,1a,2,7b-tetrahydrocyclopropa[c]chromen-1-yl]-N′-{5-[4-(1H-1,2,4-triazol-1-yl)phenoxy]pyridin-2-yl}urea] | 0.06 µM |  |
| NC(=O)c1ccc(Oc2ccc(NC(=O)N[C@@H]3[C@@H]4COc5c(F)ccc(F)c5[C@@H]43)nc2)cc1 [Example 9, 4-({6-[({[(1S,1aR,7bR)-4,7-difluoro-1,1a,2,7b-tetrahydrocyclopropa[c]chromen-1-yl]amino}carbonyl)amino]-3-pyridinyl}oxy)benzamide] | 0.028 µM |  |
